Source: paper PMC7311426, “An amphipathic peptide with antibiotic activity against multidrug-resistant Gram-negative bacteria” (Nature Communications, 2020)

Test system: E. coli ATCC 25922
Assay: NPN uptake assay, outer membrane permeabilization
Assay type: cell-based, Escherichia coli
Details: Prism nonlinear fit, One site - specific binding with Hill slope, Bmax = 100

## C[C@@H](O)[C@H]1C(=O)N2C(C(=O)O)=C(S[C@@H]3CN[C@H](C(=O)N(C)C)C3)[C@H](C)[C@H]12 [Meropenem, meropenem, reference compound]
  h (Hill slope, best-fit value): 0.3497
